Source: paper PMC9331004 (Scientific Reports, 2022)
Like-named read-outs stand apart in the source and are kept apart here.

What was measured:
in vitro = settings: African green monkey, CC50, Vero-E6 cells, crystal violet
[1] = system: MERS-CoV (isolate NRCE-HKU270); assay: microbe, parasite or virus in culture; assay type: cell-based; settings: for IC50: Middle East respiratory syndrome-related coronavirus
[2] = system: SARS-CoV-2 (hCoV-19/Egypt/NRC-3/2020, NRC-03-nhCoV); assay: microbe, parasite or virus in culture; assay type: cell-based; settings: for IC50: Severe acute respiratory syndrome coronavirus 2, Vero C1008, 72 h
SARS-CoV-2 [3] = assay type: cell-based
SARS-CoV-2 [4] = assay: microbe, parasite or virus in culture; assay type: cell-based
MERS-CoV [5] = assay type: cell-based
MERS-CoV [6] = assay type: cell-based; remark: listed apart in the source
[7] = Vero C1008, read-out: IC50 MERS-CoV
[8] = Vero C1008, read-out: IC50 against MERS-CoV
[9] = read-out: IC50 against SARS-CoV-2

Compound	CC50 at 72 h (in vitro)	IC50 [1, 7]	IC50 [1, 8]	IC50 [2, 9]	CC50 at 72 h (in vitro; values given in Fig. 2)	mode of action against SARS-CoV-2 (SARS-CoV-2 [3])	effect on viral RNA copy number (qRT-PCR) (SARS-CoV-2 [4])	selectivity index (CC50/IC50) for SARS-CoV-2 [2]	IC50 ([2]; read-out: IC50 SARS-CoV-2)	mode of action against MERS-CoV (MERS-CoV [5])	effect on viral RNA copy number (qRT-PCR) (MERS-CoV [6])	selectivity index (CC50/IC50) for MERS-CoV [1]	inhibition at 8.3 µM (SARS-CoV-2 [4]; Severe acute respiratory syndrome coronavirus 2, Vero C1008, 48 h, read-out: viral inhibition compared to untreated and infected cells (qRT-PCR))
CN(C)CCC[C@@]1(c2ccc(F)cc2)OCc2cc(C#N)ccc21 [Escitalopram]	352 µM	93.6 µM	93.5 µM	209 µM									
CN(C)CCCC1(c2ccc(F)cc2)OCc2cc(C#N)ccc21 (stereo not drawn) [Citalopram]	295 µM	303 µM	302 µM	172 µM	295 µM								
CN(C)CCC=C1c2ccccc2CCc2ccccc21 [Amitriptyline]	306 µM		129 µM	10.7 µM		remarkable virucidal effect and effects on virus replication	reduction in viral RNA copy number	28.5					
CN1CCN(C(=O)O[C@H]2c3nccnc3C(=O)N2c2ccc(Cl)cn2)CC1 [Eszopiclone]	193 µM		99.9 µM	80 µM					80 µM				
CN1CCN2c3ncccc3Cc3ccccc3C2C1 (stereo not drawn) [Mirtazapine]	572 µM		132 µM	180 µM	572 µM								
CN(C)CCCN1c2ccccc2CCc2ccccc21 [Imipramine]	270 µM		14.2 µM	29.4 µM	271 µM				29.5 µM	virucidal and replication potential combination mechanisms	reduction in viral RNA copy number	19	
Fc1ccc([C@@H]2CCNC[C@H]2COc2ccc3c(c2)OCO3)cc1 [Paroxetine]	264 µM	7.73 µM	7.7 µM	22.7 µM		remarkable virucidal effect and effects on virus replication	reduction in viral RNA copy number	11.6		virucidal and replication potential combination mechanisms	reduction in viral RNA copy number	34.2	99%
CN[C@H]1CC[C@@H](c2ccc(Cl)c(Cl)c2)c2ccccc21 [Sertraline]	116 µM									virucidal and adsorption mechanisms	reduction in viral RNA copy number		
